Reference: ChEMBL document CHEMBL1129670, “Synthesis and structure-activity relationships of N-propyl-N-(4-pyridinyl)-1H-indol-1-amine (besipirdine) and related analogs as potential therapeutic agents for Alzheimer's disease” (J Med Chem, 1996)

Experiments:
[1] = molecular target: Muscarinic acetylcholine receptor; assay type: cell membranes, Membrane
Description: Inhibition of [3H]quinuclidinyl benzilate (QNB) binding from rat forebrain membranes in the absence of Zn

[2] = molecular target: Sodium-dependent noradrenaline transporter (Homo sapiens, UniProt P23975)
Description: Inhibitory activity against norepinephrine (NE) uptake in rat whole brain synaptosome preparation

[3] = molecular target: Muscarinic acetylcholine receptor; assay type: cell membranes, Membrane; remark: listed apart in the source
Description: Inhibition of [3H]quinuclidinyl benzilate (QNB) binding from rat forebrain membranes in the presence of Zn

Mus musculus [4] = assay: Antagonistic activity against Scopolamine induced behavioral deficits in mice at dose 2.5 mg/kg sc; assay type: functional; details: route subcutaneous
Mus musculus [5] = species on record: Mus musculus; assay: animal or person
Description: Effective dose against administration in mice

Mus musculus [6] = assay: Antagonistic activity against Scopolamine induced behavioral deficits in mice at dose 1.25 mg/kg sc; 1/6; assay type: functional
Mus musculus [7] = species on record: Mus musculus; assay: Antagonistic activity against Scopolamine induced behavioral deficits in mice; 0/9; assay type: functional
Acetylcholinesterase = molecular target: T1, Acetylcholinesterase (Rattus norvegicus, UniProt P37136)
T1 sequence (P37136 whole entry): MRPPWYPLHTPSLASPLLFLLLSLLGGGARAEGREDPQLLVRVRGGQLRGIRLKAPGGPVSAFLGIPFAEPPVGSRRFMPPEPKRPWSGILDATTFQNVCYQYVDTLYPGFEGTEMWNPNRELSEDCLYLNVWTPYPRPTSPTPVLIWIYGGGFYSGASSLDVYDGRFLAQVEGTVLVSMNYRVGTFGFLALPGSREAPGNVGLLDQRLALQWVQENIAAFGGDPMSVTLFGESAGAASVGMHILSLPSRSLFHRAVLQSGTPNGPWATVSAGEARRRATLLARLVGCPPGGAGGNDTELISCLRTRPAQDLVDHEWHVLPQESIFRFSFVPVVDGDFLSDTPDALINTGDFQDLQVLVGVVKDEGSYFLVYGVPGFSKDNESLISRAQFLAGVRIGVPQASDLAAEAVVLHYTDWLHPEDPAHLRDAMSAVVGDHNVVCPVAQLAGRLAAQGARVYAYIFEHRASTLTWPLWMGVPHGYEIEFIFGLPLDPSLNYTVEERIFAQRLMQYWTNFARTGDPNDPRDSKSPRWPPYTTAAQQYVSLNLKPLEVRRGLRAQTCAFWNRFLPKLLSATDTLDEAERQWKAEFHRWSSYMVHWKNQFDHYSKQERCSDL
Description: Inhibitory activity against acetylcholinesterase in rat striatal preparation

[8] = molecular target: T2, Adrenergic receptor alpha-2 (Rattus norvegicus, UniProt P22086+P19328+P22909); assay: Inhibitory activity against [3H]clonidine binding to Alpha-2 adrenergic receptor in rat cortex
T2 sequence (P22086 whole entry): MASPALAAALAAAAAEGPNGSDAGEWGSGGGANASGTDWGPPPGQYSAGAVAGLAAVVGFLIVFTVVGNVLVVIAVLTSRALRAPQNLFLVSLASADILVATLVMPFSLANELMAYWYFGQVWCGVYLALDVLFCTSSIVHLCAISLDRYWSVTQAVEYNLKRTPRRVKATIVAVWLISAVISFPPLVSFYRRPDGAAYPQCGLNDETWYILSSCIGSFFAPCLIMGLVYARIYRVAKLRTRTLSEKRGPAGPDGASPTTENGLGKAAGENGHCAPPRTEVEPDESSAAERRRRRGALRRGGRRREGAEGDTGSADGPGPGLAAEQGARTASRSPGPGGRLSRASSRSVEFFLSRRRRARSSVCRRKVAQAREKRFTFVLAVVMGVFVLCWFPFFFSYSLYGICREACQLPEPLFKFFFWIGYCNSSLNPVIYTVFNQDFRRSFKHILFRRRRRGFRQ
T2 sequence (P19328 whole entry): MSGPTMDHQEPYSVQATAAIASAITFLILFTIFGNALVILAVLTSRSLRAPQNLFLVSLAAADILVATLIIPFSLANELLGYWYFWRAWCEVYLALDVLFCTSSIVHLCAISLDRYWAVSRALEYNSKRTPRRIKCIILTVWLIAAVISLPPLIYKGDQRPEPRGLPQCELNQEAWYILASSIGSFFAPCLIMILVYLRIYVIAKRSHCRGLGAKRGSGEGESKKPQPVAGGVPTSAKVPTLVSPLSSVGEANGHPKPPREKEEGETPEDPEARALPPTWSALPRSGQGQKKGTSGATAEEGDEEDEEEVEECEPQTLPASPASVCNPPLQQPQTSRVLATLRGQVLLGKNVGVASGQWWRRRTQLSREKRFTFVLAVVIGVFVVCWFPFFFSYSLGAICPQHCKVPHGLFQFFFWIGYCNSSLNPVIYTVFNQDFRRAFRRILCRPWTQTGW
T2 sequence (P22909 whole entry): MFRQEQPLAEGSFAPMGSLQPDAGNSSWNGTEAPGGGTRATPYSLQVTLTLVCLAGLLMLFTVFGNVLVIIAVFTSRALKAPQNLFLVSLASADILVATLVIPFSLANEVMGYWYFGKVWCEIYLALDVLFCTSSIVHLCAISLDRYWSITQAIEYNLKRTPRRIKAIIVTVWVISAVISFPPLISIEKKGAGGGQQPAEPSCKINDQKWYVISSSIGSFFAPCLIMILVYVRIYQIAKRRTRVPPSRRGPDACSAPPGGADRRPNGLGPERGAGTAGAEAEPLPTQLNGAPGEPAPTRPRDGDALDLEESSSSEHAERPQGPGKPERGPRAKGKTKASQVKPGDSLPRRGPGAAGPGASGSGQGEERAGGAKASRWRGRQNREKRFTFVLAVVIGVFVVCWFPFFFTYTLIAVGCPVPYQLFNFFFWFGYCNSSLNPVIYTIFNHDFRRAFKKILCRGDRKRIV

Mus musculus [9] = assay: Antagonistic activity against Scopolamine induced behavioral deficits in mice at dose 0.16 mg/kg sc; assay type: functional; details: route subcutaneous
Mus musculus [10] = species on record: Mus musculus; assay: Antagonistic activity against Scopolamine induced behavioral deficits in mice; 1/10; assay type: functional
Mus musculus [11] = species on record: Mus musculus
Mus musculus [12] = assay: Antagonistic activity against Scopolamine induced behavioral deficits in mice at dose 0.63 mg/kg sc; assay type: functional; details: route subcutaneous
Mus musculus [13] = species on record: Mus musculus; assay: Antagonistic activity against Scopolamine induced behavioral deficits in mice; assay type: functional
Mus musculus [14] = assay: Antagonistic activity against Scopolamine induced behavioral deficits in mice at dose 0.04 mg/kg sc; assay type: functional; details: route subcutaneous
Mus musculus [15] = assay: Antagonistic activity against Scopolamine induced behavioral deficits in mice at dose 1.0 mg/kg sc; assay type: functional; details: route subcutaneous
Mus musculus [16] = species on record: Mus musculus; assay: Antagonistic activity against Scopolamine induced behavioral deficits in mice; 2/3; assay type: functional
Mus musculus [17] = assay: Antagonistic activity against Scopolamine induced behavioral deficits in mice at dose 0.3 mg/kg sc; assay type: functional; details: route subcutaneous
Mus musculus [18] = assay: Antagonistic activity against Scopolamine induced behavioral deficits in mice at dose 1.25 mg/kg sc; 0/6; assay type: functional
Mus musculus [19] = assay: Antagonistic activity against Scopolamine induced behavioral deficits in mice at dose 5.0 mg/kg sc; 1/3; assay type: functional
Mus musculus [20] = species on record: Mus musculus; assay: Antagonistic activity against Scopolamine induced behavioral deficits in mice; 1/3; assay type: functional
Mus musculus [21] = species on record: Mus musculus; details: dose 2.5 mg/kg; route subcutaneous
Mus musculus [22] = species on record: Mus musculus; assay: Antagonistic activity against Scopolamine induced behavioral deficits in mice; 3/9; assay type: functional
Mus musculus [23] = assay: Antagonistic activity against Scopolamine induced behavioral deficits in mice at dose 10 mg/kg sc; assay type: functional; details: route subcutaneous
Mus musculus [24] = assay: Antagonistic activity against Scopolamine induced behavioral deficits in mice at dose 20 mg/kg sc; assay type: functional; details: route subcutaneous
Mus musculus [25] = species on record: Mus musculus; assay: Antagonistic activity against Scopolamine induced behavioral deficits in mice; 2/10; assay type: functional
Mus musculus [26] = assay: Antagonistic activity against Scopolamine induced behavioral deficits in mice at dose […] sc; assay type: functional; details: route subcutaneous
Mus musculus [27] = assay: Antagonistic activity against Scopolamine induced behavioral deficits in mice at dose 1.25 mg/kg sc; assay type: functional; details: route subcutaneous
Mus musculus [28] = assay: Antagonistic activity against Scopolamine induced behavioral deficits in mice at dose 5.0 mg/kg sc; 2/8; assay type: functional
[29] = molecular target: T3, Adrenergic receptor alpha-1 (Rattus norvegicus, UniProt P15823+P23944+P43140); assay: Inhibitory activity against [3H]WB-4101 binding to Alpha-1 adrenergic receptor in rat whole brain membrane; assay type: cell membranes
T3 sequence (P15823 whole entry): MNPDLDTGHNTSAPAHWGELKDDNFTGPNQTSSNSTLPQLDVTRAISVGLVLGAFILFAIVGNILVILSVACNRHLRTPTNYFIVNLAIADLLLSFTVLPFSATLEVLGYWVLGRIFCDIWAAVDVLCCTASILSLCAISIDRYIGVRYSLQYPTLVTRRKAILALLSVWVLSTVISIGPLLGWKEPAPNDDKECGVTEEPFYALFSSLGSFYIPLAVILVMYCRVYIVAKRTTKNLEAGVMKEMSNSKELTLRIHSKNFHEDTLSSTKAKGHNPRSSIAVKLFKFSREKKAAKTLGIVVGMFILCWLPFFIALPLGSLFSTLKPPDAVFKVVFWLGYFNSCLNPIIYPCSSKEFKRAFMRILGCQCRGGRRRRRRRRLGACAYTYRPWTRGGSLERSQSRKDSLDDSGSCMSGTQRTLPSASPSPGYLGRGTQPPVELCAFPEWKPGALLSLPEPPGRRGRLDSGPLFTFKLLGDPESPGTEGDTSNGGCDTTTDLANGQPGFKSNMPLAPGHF
T3 sequence (P23944 whole entry): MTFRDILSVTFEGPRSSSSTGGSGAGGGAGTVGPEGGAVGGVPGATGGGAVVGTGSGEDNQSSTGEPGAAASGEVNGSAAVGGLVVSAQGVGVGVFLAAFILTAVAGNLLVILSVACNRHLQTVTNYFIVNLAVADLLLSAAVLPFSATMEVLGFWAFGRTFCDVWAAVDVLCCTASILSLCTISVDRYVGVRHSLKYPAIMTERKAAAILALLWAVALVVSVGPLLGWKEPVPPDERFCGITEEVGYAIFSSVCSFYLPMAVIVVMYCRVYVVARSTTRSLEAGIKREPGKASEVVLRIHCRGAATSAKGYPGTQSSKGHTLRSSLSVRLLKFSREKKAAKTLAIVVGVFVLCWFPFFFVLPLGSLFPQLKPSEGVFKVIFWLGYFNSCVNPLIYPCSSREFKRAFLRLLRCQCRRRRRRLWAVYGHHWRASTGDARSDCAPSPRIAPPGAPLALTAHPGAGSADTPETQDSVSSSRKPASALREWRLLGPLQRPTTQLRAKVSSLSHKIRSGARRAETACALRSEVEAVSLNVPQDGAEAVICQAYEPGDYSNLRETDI
T3 sequence (P43140 whole entry): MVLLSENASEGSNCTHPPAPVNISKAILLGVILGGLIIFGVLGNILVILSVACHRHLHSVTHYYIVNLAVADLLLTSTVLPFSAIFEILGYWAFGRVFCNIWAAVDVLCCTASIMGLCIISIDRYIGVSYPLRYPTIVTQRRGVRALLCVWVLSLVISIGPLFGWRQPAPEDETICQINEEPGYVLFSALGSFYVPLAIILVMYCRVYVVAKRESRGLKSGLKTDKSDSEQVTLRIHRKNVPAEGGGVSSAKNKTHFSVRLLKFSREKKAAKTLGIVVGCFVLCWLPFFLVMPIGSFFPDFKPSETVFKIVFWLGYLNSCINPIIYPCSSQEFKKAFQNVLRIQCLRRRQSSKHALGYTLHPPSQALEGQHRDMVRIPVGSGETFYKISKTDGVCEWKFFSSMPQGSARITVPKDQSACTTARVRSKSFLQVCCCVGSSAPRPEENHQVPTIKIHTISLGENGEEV

Chain of Sodium-dependent noradrenaline transporter (P23975 whole entry): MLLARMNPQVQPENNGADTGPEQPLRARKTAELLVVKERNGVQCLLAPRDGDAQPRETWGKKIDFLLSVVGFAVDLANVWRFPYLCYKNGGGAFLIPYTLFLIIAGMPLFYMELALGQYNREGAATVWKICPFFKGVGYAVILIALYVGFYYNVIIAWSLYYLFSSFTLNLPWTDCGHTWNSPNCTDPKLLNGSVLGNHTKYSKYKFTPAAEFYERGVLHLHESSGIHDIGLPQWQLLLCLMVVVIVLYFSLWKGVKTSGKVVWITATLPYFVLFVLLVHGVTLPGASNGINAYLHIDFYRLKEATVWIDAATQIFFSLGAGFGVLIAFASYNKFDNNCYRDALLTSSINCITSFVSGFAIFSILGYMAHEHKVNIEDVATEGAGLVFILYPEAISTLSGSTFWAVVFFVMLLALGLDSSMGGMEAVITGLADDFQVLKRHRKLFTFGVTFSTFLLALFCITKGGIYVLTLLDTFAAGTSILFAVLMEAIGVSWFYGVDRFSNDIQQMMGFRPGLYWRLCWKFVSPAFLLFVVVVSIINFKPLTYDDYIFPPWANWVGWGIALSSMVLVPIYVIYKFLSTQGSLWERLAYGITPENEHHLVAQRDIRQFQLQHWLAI

Row | Structure (SMILES) | IC50 [1] [µM] | IC50 [2] [nM] | IC50 [3] [µM] | ED50 (Mus musculus [5]) [mg/kg] | IC50 (Acetylcholinesterase) [µM] | IC50 [8] [µM] | also measured
1 | CCCN(c1ccnc2cc(Cl)ccc12)n1ccc2ccccc21.O=C(O)/C=C/C(=O)O | > 300 | 6900 | 180 | > 20 |  |  | Response (Mus musculus [4]): 29%; Antagonism (Mus musculus [6]): 1
2 | CCCN(c1ccncc1)n1cc(CC)c2ccccc21 | 2.7 | 2100 | 0.71 | 0.44 | 20 | 3.6 | Antagonism (Mus musculus [7]): 0
3 | CCCN(c1ccncc1)n1cc(C(C)=O)c2ccccc21 | 29 | 3300 | 2.7 | 5 | 58 |  | Response (Mus musculus [9]): 20%; Antagonism (Mus musculus [10]): 1
4 | CCCN(c1cc(Cl)ncn1)n1ccc2ccccc21 | > 1000 | 2600 | > 1000 | > 20 | > 100 |  | Antagonism (Mus musculus [11]): 3; Response (Mus musculus [4]): 33%; Response (Mus musculus [12]): 33%
5 | CCCCN(c1ccncc1)n1ccc2ccccc21 | 4 | 430 | 1.5 | 5.4 | 62 | 0.63 | Agonism (Mus musculus [13]): 1; Response (Mus musculus [14]): 23%
6 | c1ccc2c(c1)ccn2Cc1ccncc1 | 223 | > 20000 | 84 |  |  |  | Response (Mus musculus [15]): 20%; Antagonism (Mus musculus [16]): 2; Response (Mus musculus [17]): 33%
7 | CCCN(c1ccncc1)n1ncc2ccccc21.O=C(O)/C=C/C(=O)O | 13 | 1400 | 4 | 11 | > 100 |  | Antagonism (Mus musculus [18]): 0
8 | CCCC(c1ccncc1)n1ccc2ccccc21 (centres undefined) | 142 | 670 | 29 |  |  |  | Antagonism (Mus musculus [19]): 1; Response (Mus musculus [17]): 20%
9 | CN(c1ccncc1)n1ccc2cc(Br)ccc21 | 4.6 | 13000 | 2.5 | > 20 | > 100 |  | Antagonism (Mus musculus [20]): 1; Response (Mus musculus [15]): 44%
10 | C#CCN(c1ccncc1)n1ccc2ccccc21 | 11 | 680 | 2.5 | 3.9 | > 100 | 0.5 | Response (Mus musculus [21]): 21%; Antagonism (Mus musculus [22]): 3; Response (Mus musculus [23]): 21%; Response (Mus musculus [24]): 27%
11 | CCCN(c1ccncc1)n1cc(C)c2ccccc21 | 19 | 1300 | 4.5 | 1.8 | 29 | 2.5 | Antagonism (Mus musculus [25]): 2; Response (Mus musculus [14]): 22%; Response (Mus musculus [26]): 20%
12 | CCCN(c1ccncc1)n1c2ccccc2c2ccccc21.O=C(O)/C=C/C(=O)O | 5.5 | 2400 | 0.5 | 1.5 | > 100 | 0.54 | Response (Mus musculus [27]): 20%; Antagonism (Mus musculus [28]): 2; IC50 [29]: 3.2 µM; Response (Mus musculus [23]): 24%
